From patent US20230263758A1, “COMPOSITIONS OF EDTA HAVING ACTIVITY AGAINST PLANKTONIC AND BIOFILM CELLS OF CLINICALLY RELEVANT PATHOGENS” (SterileCare Inc., priority 2022, published 2023) come the findings set out here.

Test [1] relates to MRSA ON184. The test can be described thus: Checkerboard, FMCI. Type of test: cell-based, Staphylococcus aureus. The following applies: EDTA + chlorhexidine HCl. The method, then: (§1) An assay was made using a minimum inhibitory concentration (MIC) and minimum bactericidal concentration (MBC) and minimum fungicidal concentration (MFC) determination. The MIC was determined by the micro broth dilution method in 96-well plates. Serial two-fold dilutions of tetrasodium EDTA (from 2% to 0.015%), ethanol (from 50% to 0.1%) and chlorhexidine HCl (from 100 μg/mL to 0.025 μg/mL) were prepared in MH broth with a final volume of 90 μL per well. A 10 μL containing 1×10^5 bacterial cells or 2×10^3 fungal cells were added to each well. The inoculated plates were covered with a lid, sealed with Parafilm, and incubated for 24 h at 37° C. with slight rocking on a tilting platform shaker. After incubation, the optical density at 600 nm (OD 600) of the cultures in each well was measured using an xMark™ Microplate Absorbance Spectrophotometer (Bio-Rad). […] MBCs and MFCs were determined by transferring 100 μL from each well with no apparent growth onto appropriate agar plates, followed by incubation for 24 h at 37° C.
A fourth composition and solution included tetrasodium EDTA with ethanol or chlorhexidine HCl. […] The concentrations of antimicrobials used were based on previously determined MIC values. […] Microtiter plates were incubated at 37° C. for 24 h, and the results were analyzed. […]

The subject of test [2] is Staphylococcus aureus ON89. The experiment in a line: MBEC assay, 48-h biofilm. Type of test: cell-based. The conditions noted are these: S. aureus ON89 48-h biofilm; 24 h exposure. As to the method: (§2) A biofilm cultivation cell composition was provided. This fifth composition was created using an MBEC Assay® biofilm inoculator, consisting of a polystyrene lid with 96 downward-protruding pegs and a corresponding base used to grow biofilms. A standardized inoculum was diluted in an appropriate biofilm growth medium to achieve a viable cell count of 1.5×10^6 CFU/mL of bacterial cells or 5×10^5 CFU/mL of fungal cells. Then, 150 μL of this inoculum was transferred into each appropriate well, and the peg lids were inserted into the microtiter plates. The plates were sealed with Parafilm and were incubated at optimum temperature for 48 h with slight rocking for bacteria and shaking at 200 rpm for fungal strains. After incubation, the peg lid was removed from the base and rinsed twice with sterile phosphate-buffered saline (PBS) for 2 min to remove loosely attached non-sessile cells. Before the antimicrobial challenge, the pegs in column 1 (n=8) were considered the biofilm growth control; these pegs were removed from the lids, placed into 200 μL of recovery medium, and analyzed for starting biofilm cell numbers as described below. The rinsed pegs were placed into new 96-well plates containing two-fold dilutions of antimicrobials such as tetrasodium EDTA (4%-0.0125%), ethanol (100%-0.2%), and chlorhexidine HCl (100 μg/mL-0.4 μg/mL) in 200 μL of suitable biofilm growth medium per well and incubated at optimum temperature for 24 h. After the antimicrobial challenge, the pegs were rinsed twice with sterile PBS for 2 min and placed into a new 96-well plate containing 200 μL of recovery medium. The recovery plates were sealed with Parafilm, and biofilm cells were dislodged from the pegs by sonication for 30 min with a Branson 3510 bath sonicator. The biofilm cells in the recovery medium were serially diluted, and a drop dilution assay was performed to enumerate the viable cells. MBEC values were determined as the minimum concentration of antimicrobials that yielded a viable cell count at or lower than the 125 CFU/mL detection limit.

In test [3] the test system is Pseudomonas aeruginosa SK1. The experiment in a line: MBEC assay, 48-h biofilm. Type of test: cell-based. The following applies: P. aeruginosa SK1 48-h biofilm; 24 h exposure. The method, then: as §2
For a further test, the system named is Proteus mirabilis ON153. The test can be described thus: MBEC assay, 48-h biofilm. The following applies: P. mirabilis ON153 48-h biofilm; 24 h exposure. The class given is cell-based. As to the method:
as §2

The subject of test [4] is Staphylococcus epidermidis SK9. The test can be described thus: MBEC assay, 48-h biofilm. Type of test: cell-based. The conditions noted are these: S. epidermidis SK9 48-h biofilm; 24 h exposure. The method, then:
as §2

Another test concerns Escherichia coli SK2. The test can be described thus: MBEC assay, 48-h biofilm. Type of test: cell-based. The following applies: E. coli SK2 48-h biofilm; 24 h exposure. The method, then:
as §2

Test [5] has as its system Candida albicans SK4b. The test can be described thus: MBEC assay, 48-h biofilm. The class given is cell-based. The following applies: C. albicans SK4b 48-h biofilm; 24 h exposure. As to the method: as §2
Test [6] concerns MRSA ON184. The experiment in a line: Checkerboard FBEC index, 48-h biofilm. Type of test: cell-based, Staphylococcus aureus. The conditions noted are these: EDTA + chlorhexidine HCl.
Description: (§4) In step (4), microtiter plates are incubated at 37° C. for 24 h. then (6), after incubation, the bacterial and fungal cells were dislodged from the pegs into the recovery medium described above.
(§5) Three 10-μL aliquots, for a total of 30 μL from each well of recovery medium, were spotted on MH agar plates and incubated for 24 h at 37° C. […] The FBEC determination is a modification of the FICI.
In test [7] the test system is C. albicans ON47. The test can be described thus: MBC/MFC determination. Type of test: cell-based, Candida albicans. The conditions noted are these: agent alone. The method, then: as §1
For test [8], the system named is C. albicans ON47. The experiment in a line: MIC, micro broth dilution. The conditions noted are these: agent alone. Type of test: cell-based, Candida albicans. The method, then: as §1
On the technique in general: Dilution methods test growth across graded concentrations, often in twofold steps.

The test system of test [9] is MRSA ON184. The experiment in a line: MBC/MFC determination. The class given is cell-based, Staphylococcus aureus. The conditions noted are these: agent alone. The method, then:
as §1

Test [10] deals with MRSA ON184. The test can be described thus: MBEC assay, 48-h biofilm. The conditions noted are these: MRSA ON184 48-h biofilm; 24 h exposure. Type of test: cell-based, Staphylococcus aureus. The method, then:
(§3) A biofilm cultivation cell composition was provided. This fifth composition was created using an MBEC Assay® biofilm inoculator, consisting of a polystyrene lid with 96 downward-protruding pegs and a corresponding base used to grow biofilms. A standardized inoculum was diluted in an appropriate biofilm growth medium to achieve a viable cell count of 1.5×10^6 CFU/mL of bacterial cells or 5×10^5 CFU/mL of fungal cells. Then, 150 μL of this inoculum was transferred into each appropriate well, and the peg lids were inserted into the microtiter plates. The plates were sealed with Parafilm and were incubated at optimum temperature for 48 h with slight rocking for bacteria and shaking at 200 rpm for fungal strains. After incubation, the peg lid was removed from the base and rinsed twice with sterile phosphate-buffered saline (PBS) for 2 min to remove loosely attached non-sessile cells. Before the antimicrobial challenge, the pegs in column 1 (n=8) were considered the biofilm growth control; these pegs were removed from the lids, placed into 200 μL of recovery medium, and analyzed for starting biofilm cell numbers as described below. […] MBEC values were determined as the minimum concentration of antimicrobials that yielded a viable cell count at or lower than the 125 CFU/mL detection limit.

Test [11] has as its system E. coli SK2. The experiment in a line: MIC, micro broth dilution. The class given is cell-based, Escherichia coli. The following applies: agent alone. The method, then:
as §1

Test [12] concerns C. albicans ON47. The test can be described thus: Checkerboard FBEC index, 48-h biofilm. Type of test: cell-based, Candida albicans. The conditions noted are these: EDTA + chlorhexidine HCl.
Description: as §4
Three 10-μL aliquots, for a total of 30 μL from each well of recovery medium, were spotted on MH agar plates and incubated for 24 h at 37° C.
Test [13] relates to S. epidermidis SK9. The experiment in a line: MIC, micro broth dilution. The class given is cell-based, Staphylococcus epidermidis. The following applies: agent alone. As to the method: as §1
The subject of test [14] is MRSA ON184. The test can be described thus: MIC, micro broth dilution. The class given is cell-based, Staphylococcus aureus. The conditions noted are these: agent alone. The method, then: as §1
In test [15] the test system is E. coli SK2. The experiment in a line: MBC/MFC determination. The class given is cell-based, Escherichia coli. The conditions noted are these: agent alone. As to the method: as §1
In test [16] the test system is S. epidermidis SK9. The test can be described thus: MBC/MFC determination. Type of test: cell-based, Staphylococcus epidermidis. The conditions noted are these: agent alone. As to the method: as §1
Test [17] relates to Candida albicans SK4b. The experiment in a line: Checkerboard FBEC index, 48-h biofilm. The class given is cell-based. The following applies: C. albicans SK4b biofilm; EDTA + chlorhexidine HCl.
Description: as §4, §5
The subject of test [18] is C. albicans ON47. The experiment in a line: MBEC assay, 48-h biofilm. The conditions noted are these: C. albicans ON47 48-h biofilm; 24 h exposure. The class given is cell-based, Candida albicans. The method, then:
as §3

Where a name gives a salt, the structure may show the parent alone.

`[H]/N=C(\N/C(=N/[H])NCCCCCCNC(=N)NC(=N)Nc1ccc(Cl)cc1)Nc1ccc(Cl)cc1` [Chlorhexidine HCl, chlorhexidine HCl, reference compound]: the “Microbicidal concentration in combination” value in the test on MRSA ON184 [1] amounted to 0.4 µg/mL.
For the molecule `O=C([O-])CN(CCN(CC(=O)[O-])CC(=O)[O-])CC(=O)[O-].[Na+].[Na+].[Na+].[Na+]` [EDTA, tetrasodium EDTA], the MBEC in test [2] amounted to 4 % w/v; in test [3] it was 4 % w/v; in the test on Proteus mirabilis ON153 it was 4 % w/v; in [4], 2 % w/v; in the test with Escherichia coli SK2 it was 2 % w/v; in the test on Candida albicans SK4b [5], 1 % w/v. Also, the MBEC turned out to be 2 % w/v in the test on MRSA ON184 [10] and 1 % w/v in the test with C. albicans ON47 [18]. In addition, the “Biofilm eradication concentration in combination (FBEC)” value in the test with MRSA ON184 [6] is listed as 0.031 % w/v; in the test with C. albicans ON47 [12], 0.031 % w/v; in the test on Candida albicans SK4b [17], 0.063 % w/v. Besides, the MBC/MFC in the test with C. albicans ON47 [7] worked out at 1 % w/v; against MRSA ON184 [9], 2 % w/v; in the test on E. coli SK2 [15], 0.5 % w/v; with S. epidermidis SK9 [16], 0.5 % w/v. Further, the MIC in the test with C. albicans ON47 [8] is listed as 1 % w/v; in the test with E. coli SK2 [11], 0.5 % w/v; in the test on S. epidermidis SK9 [13] it was 0.063 % w/v; in the test with MRSA ON184 [14], 0.063 % w/v.
